The values that follow come from patent US6933290B2, “2-{N-(2-amino-3-(heteroaryl or aryl)propionyl)-aminoacyl}-amino}-alkylboronic acid derivatives” (Novartis AG, priority 2001, dated 2005).

Where “and” joins values, the source holds several entries; their conditions need not be identical. Identical values can stand only once.

This experiment has as its target T1, chymotrypsin-like activity of the 20S proteasome (Homo sapiens, UniProt P20618+P28074).
T1 construct: purified human placenta 20S proteasome; tissue Diabetes Forschungsinstitut, Düsseldorf, Germany; host or cells: human placenta
As to the kind of experiment: Inhibition of the chymotrypsin-like activity of the 20S proteasome (Suc-LLVY-AMC hydrolysis). The experiment is classed as biochemical. The conditions noted are these: purified human placenta 20S proteasome, Suc-LLVY-AMC substrate, read-out: IC50 [μM] (results of one or two experiments). An excerpt: It is based on the hydrolysis of the fluorogenic peptide Suc-LLVY-AMC (Succinyl-leucine-leucine-vatine-tyrosine-7-amino-4-methyl-coumarin), which is cleaved exclusively at the Y-AMC bond by the 20S proteasome. Hydrolysis of this peptide is accompanied by an increase in fluorescence intensity (λex (excitation wavelength): 355 nm; μem (emission wavelength): 460 nm) due to release of the […] that accompanies diffusion apart of the hydrolysis product Suc-LLVY.
2 μl of a 1 mM solution of a test compound in DMSO (dimethylsulfoxide, 20 μM final concentration in the well) are preincubated for 60 min at room temperature in black 96-well microtiter plates together with a mixture of 1 μl purified human placenta 20S proteasome (Diabetes Forschungsinstitut, DÜsseldorf, Germany; about 100 ng proteasome, depending on the proteasome preparation) and 47 μl buffer-Ca (5 mM CaCl2, 20 mM Tris/HCl (Tris-(hydroxymethyl)-amino-methane hydrochloride) pH 8.0). 3 μl of a 2.67 mM solution of Suc-LLVY-AMC (Bachem, Switzerland) in DMSO (80 μM final concentration in the well) and 47 μl buffer-Ca are mixed and added. The resulting mixture is incubated for 3-24 h at 37° C. If desired, proteolysis of the substrate can be stopped by addition of 50 μl stop solution (100 mM monochloroacetic acid, 130 mM NaOH, 100 mM acetic acid, pH=4.3). The fluorescence is monitored with a FLUOROSKAN ASCENT™ microtiter plate reader.
For each measurement series two control experiments are carried out: • 1.) 0% value: 2 μl DMSO are used in the above described assay instead of 2 μl of a 1 mM solution of a test compound in DMSO and 48 μl buffer-Ca instead of a mixture of 47 μl buffer-Ca and 1 μl purified proteasome. • 2.) 100% value: in the above described assay 2 μl DMSO are used instead of 2 μl of a 1 mM solution of the test compound in DMSO. Calculation [formula]
The IC50 value is defined as that concentration of a compound at which the remaining activity is 50% compared to the […].
What is called IC50 is the midpoint of a concentration-inhibition curve. `COc1ccc(C[C@H](Nc2cccc(-c3ccccc3)c2)C(=O)N[C@H](C(=O)N[C@@H](CC(C)C)B(O)O)C(C)C)cc1OC` [Example 10, (R)-1-{(S)-2-[(S)-2-(Biphenyl-3-ylamino)-3-(3,4-dimethoxy-phenyl)-propionylamino]-3-methyl-butyrylamino}-3-methyl-butylboronic acid]: the IC50 is 0.0029 µM and 0.004 µM.

`COc1ccc(C[C@H](Nc2cccc(-c3ccccc3)c2)C(=O)N[C@@H](CC(C)C)C(=O)N[C@@H](CC(C)C)B(O)O)cc1` [Example 36, (R)-1-{(S)-2-[(S)-2-(Biphenyl-3-ylamino)-3-(4-methoxy-phenyl)-propionylamino]-4-methyl-pentanoylamino}-3-methyl-butylboronic acid]: the IC50 worked out at 0.0023 µM.

Turning to `COc1cc(C[C@@H](Nc2cccc(-c3ccccc3)c2)C(=O)N[C@H](C(=O)N[C@@H](CC(C)C)B2O[C@@H]3C[C@@H]4C[C@@H](C4(C)C)[C@]3(C)O2)C(C)C)cc(OC)c1OC` [Example 21, (S)-2-[(R)-2-(Biphenyl-3-ylamino)-3-(3,4,5-trimethoxy-phenyl)-propionylamino]-3-methyl-N-[(R)-3-methyl-1-((1S,2S,6R,8S)-2,9,9-trimethyl-3,5-dioxa-4-bora-tricyclo[6.1.1.0^2]dec-4-yl)-butyl]-butyramide], the 50% inhibitory concentration (IC50) was determined as 0.0015 µM.

On to `COc1ccc(C[C@H](NC(=O)Cc2cccc(Oc3ccccc3)c2)C(=O)N[C@H](C(=O)N[C@@H](CC(C)C)B(O)O)C(C)C)c(OC)c1OC` [Example 4], for which the IC50 is 0.0019 µM and 0.0015 µM.

For the molecule `COc1cc(C[C@H](Nc2cccc(-c3ccccc3)c2)C(=O)N[C@@H](CC(C)C)C(=O)N[C@@H](CC(C)C)B(O)O)cc(OC)c1OC` [Example 32, (R)-1-{(S)-2-[(S)-2-(Biphenyl-3-ylamino)-3-(3,4,5-trimethoxy-phenyl)-propionylamino]-4-methyl-pentanoylamino}-3-methyl-butylboronic acid], the IC50 was determined as 0.0037 µM.

Take `COc1ccc(C[C@H](Nc2cccc(-c3ccccc3)c2)C(=O)N[C@H](C(=O)N[C@@H](CC(C)C)B(O)O)C(C)C)cc1` [Example 8, (R)-1-{(S)-2-[(S)-2-(Biphenyl-3-ylamino)-3-(4-methoxy-phenyl)-propionylamino]-3-methyl-butyrylamino}-3-methyl-butylboronic acid]: the IC50 was 0.0028 µM and 0.0045 µM.

Take `COc1cc(C[C@H](Nc2cccc(C(C)C)c2)C(=O)N[C@H](C(=O)N[C@@H](CC(C)C)B(O)O)C(C)C)cc(OC)c1OC` [Example 12, (R)-1-{(S)-2-[(S)-2-(3-Isopropyl-phenylamino)-3-(3,4,5-trimethoxy-phenyl)-propionylamino]-3-methyl-butyrylamino}-3-methyl-butylboronic acid]: the IC50 came to 0.0038 µM.

Take `COc1ccc(C[C@H](Nc2cccc(-c3ccccc3)c2)C(=O)N[C@H](C(=O)N[C@@H](Cc2ccccc2)B2O[C@@H]3C[C@@H]4C[C@@H](C4(C)C)[C@]3(C)O2)C(C)C)cc1` [Example 51, (S)-2-[(S)-2-(Biphenyl-3-ylamino)-3-(4-methoxy-phenyl)-propionylamino]-3-methyl-N-[(R)-2-phenyl-1-((1S,2S,6R,8S)-2,9,9-trimethyl-3,5-dioxa-4-bora-tricyclo[6.1.1.0^2,6]dec-4-yl)-ethyl]-butyramide]: the IC50 was found to be 0.0043 µM.

For the molecule `COc1ccc(C[C@H](NC(=O)Cc2cccc(Oc3ccccc3)c2)C(=O)N[C@H](C(=O)N[C@@H](CC(C)C)B2O[C@@H]3C[C@@H]4C[C@@H](C4(C)C)[C@]3(C)O2)C(C)C)cc1OC` [Example 25, (S)-2-{(S)-3-(3,4-Dimethoxy-phenyl)-2-[2-(3-phenoxy-phenyl)-acetylamino]-propionylamino}-3-methyl-N-[(R)-3-methyl-1-((1S,2S,6R,8S)-2,9,9-trimethyl-3,5-dioxa-4-bora-tricyclo[6.1.1.0^2,6]dec-4-yl)-butyl]-butyramide], the half-inhibitory concentration (IC50) came to 0.0008 µM.

Turning to `COc1ccc(C[C@H](Nc2cccc(-c3ccccc3)c2)C(=O)N[C@@H](C)C(=O)N[C@@H](CC(C)C)B2O[C@@H]3C[C@@H]4C[C@@H](C4(C)C)[C@]3(C)O2)cc1` [Example 41, (S)-2-(Biphenyl-3-ylamino)-3-(4-methoxy-phenyl)-N-{(S)-1-[(R)-3-methyl-1-((1S,2S,6R,8S)-2,9,9-trimethyl-3,5-dioxa-4-bora-tricyclo[6.1.1.0^2,6]dec-4-yl)-butylcarbamoyl]-ethyl}-propionamide], the IC50 turned out to be 0.0012 µM.

On to `COc1cc(C[C@H](Nc2cccc(-c3ccccc3)c2)C(=O)N[C@H](C(=O)N[C@@H](Cc2ccccc2)B(O)O)C(C)C)cc(OC)c1OC` [Example 50, (R)-1-{(S)-2-[(S)-2-(Biphenyl-3-ylamino)-3-(3,4,5-trimethoxy-phenyl)-propionylamino]-3-methyl-butyrylamino}-2-phenyl-ethylboronic acid], for which the half-inhibitory concentration (IC50) is 0.0023 µM.

In the case of `COc1cc(C[C@H](Nc2cccc(C(C)C)c2)C(=O)N[C@@H](C)C(=O)N[C@@H](CC(C)C)B2O[C@@H]3C[C@@H]4C[C@@H](C4(C)C)[C@]3(C)O2)cc(OC)c1OC` [Example 45, (S)-2-(3-Isopropyl-phenylamino)-N-{(S)-1-[(R)-3-methyl-1-((1S,2S,6R,8S)-2,9,9-trimethyl-3,5-dioxa-4-bora-tricyclo[6.1.1.0^2,6]dec-4-yl)-butylcarbamoyl]-ethyl}-3-(3,4,5-trimethoxy-phenyl)-propionamide], the IC50 came out at 0.0013 µM.
